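Interpolation was linear, between the two tested concentrations surrounding the appropriate level; five concentrations were tested over 48 hours in 96-well plates. GI50 is the concentration that inhibits growth by half.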 Active and inactive are the calls of the source. Cut-off read from the data, not from the text of the source: active = GI50 up to about 1.1 µM and inactive = higher. Where only a bound is given, the exact number is not on record here.

This note sets out measurements from ChEMBL document CHEMBL1201862, “PubChem BioAssay data set” (2004).

What all share (assay): DTP human tumour cell line panel, 48 h
Assay [1] relates to OVCAR-3.
For assay [2], the system named is HT-29.
Assay [3] concerns MOLT-4.
Assay [4] deals with SK-MEL-5.
Assay [5] concerns CCRF-CEM.
The test system of assay [6] is NCI-H460.
Assay [7] deals with SK-MEL-2.
Assay [8] deals with TK-10.
In assay [9] the test system is NCI-H226.
In assay [10] the test system is SNB-75.
Assay [11] has as its system HCT-15.
The subject of assay [12] is U-251.
The subject of assay [13] is UACC-62.
For assay [14], the system named is SW-620.
In assay [15] the test system is M14.
The test system of assay [16] is SK-OV-3.
The subject of assay [17] is RPMI-8226.
Assay [18] concerns 786-0.
For assay [19], the system named is A549.
Assay [20] deals with UACC-257.

Take `c1ccc2c(c1)nc1n2CSC1`: the GI50 in assay [1], in assay [2], in [3], in assay [4], in assay [5] and in assay [6] was > 100 µM (inactive) throughout. In addition, the GI50 (usually the concentration giving 50% growth inhibition) in [7] is > 100 µM (inactive); in [8] it was > 100 µM (inactive); in [9], > 100 µM (inactive); in [10], > 100 µM (inactive); in assay [11], greater than 100 µM; in assay [12], > 100 µM (inactive). Besides, the GI50 in [13], in assay [14], in assay [15], in assay [16] and in assay [17] was > 100 µM (inactive) each time.
For the molecule `Fc1cccc(C2ON=C(c3ccccc3)N2C23CC4CC(CC(C4)C2)C3)c1` (stereo not drawn), the GI50 in assay [1], in [18], in assay [19], in assay [2], in assay [20] and in assay [3] was > 10 µM (inactive) in each case. Besides, the GI50 in assay [4], in assay [6], in assay [7], in [8], in [9] and in assay [10] was > 10 µM (inactive) throughout. Besides, the GI50 in [11] was greater than 10 µM; in assay [12], > 10 µM (inactive); in assay [13], > 10 µM (inactive); in assay [14] it was > 10 µM (inactive); in assay [15], > 10 µM (inactive); in assay [16], > 10 µM (inactive). For the same molecule, the GI50 in [17] was 8.77 µM (inactive).
As for `COc1cc(C2C(C(=O)Nc3ccccc3C)=C(C)NC(C)=C2C(=O)Nc2ccccc2C)ccc1O`, the GI50 in assay [1] is > 100 µM (inactive); in assay [18] it was > 100 µM (inactive); in assay [19], > 100 µM (inactive); in assay [2] it was > 100 µM (inactive); in [20] it was > 100 µM (inactive); in assay [3] it was 60.7 µM (inactive). In addition, the GI50 is > 100 µM (inactive) in assay [4]; 71.8 µM (inactive) in [5]; > 100 µM (inactive) in assay [6]; > 100 µM (inactive) in [7]; > 100 µM (inactive) in assay [8]; > 100 µM (inactive) in assay [9]. The GI50 was 56.6 µM (inactive) in [10]; > 100 µM (inactive) in [12]; > 100 µM (inactive) in [13]; > 100 µM (inactive) in assay [14]; > 100 µM (inactive) in assay [15]; > 100 µM (inactive) in assay [16]. Besides, the GI50 in [17] is 84.7 µM (inactive).
In the case of `Fc1ccc(C(OCCN2CCN(CCCc3ccccc3)CC2)c2ccc(F)cc2)cc1`, the GI50 was 4.15 µM (inactive) in assay [1]; 3.58 µM (inactive) in [19]; 3.13 µM (inactive) in assay [2]; 2.81 µM (inactive) in assay [20]; 4.26 µM (inactive) in assay [3]; 3.34 µM (inactive) in assay [4]. The GI50 is 4.5 µM (inactive) in assay [5]; 4.34 µM (inactive) in assay [6]; 3.75 µM (inactive) in assay [7]; 5.77 µM (inactive) in assay [8]; 3.75 µM (inactive) in [9]; 4.8 µM (inactive) in [10]. Moreover, the GI50 was 3.45 µM in [11]; 3.65 µM (inactive) in assay [12]; 9.08 µM (inactive) in assay [13]; 5.47 µM (inactive) in assay [14]; 3.12 µM (inactive) in assay [15]; 6.04 µM (inactive) in assay [16]. Moreover, in assay [17], the GI50 is 2.58 µM (inactive).
Turning to `CCOC(=O)C1CCn2c(nc3c(=O)n(C)c(=O)n(C)c32)S1` (stereo not drawn), the GI50 in assay [1], in [19], in assay [2], in assay [20], in [3] and in assay [4] was > 100 µM (inactive) throughout. Also, the GI50 in assay [5], in assay [6], in assay [7], in [8], in assay [9] and in [10] was > 100 µM (inactive) each time. Besides, the GI50 was greater than 100 µM in [11]; > 100 µM (inactive) in [12]; > 100 µM (inactive) in [13]; > 100 µM (inactive) in assay [14]; > 100 µM (inactive) in [15]; > 100 µM (inactive) in assay [16]. In addition, the GI50 in assay [17] is > 100 µM (inactive).
In the case of `CCOC(=O)C(NC(=O)c1cccc(Cl)c1)(Nc1ccc(S(=O)(=O)Nc2cc(C)on2)cc1)C(F)(F)F` (stereo not drawn), the GI50 in [1], in assay [18], in assay [19], in [2], in assay [20] and in [3] was > 100 µM (inactive) each time. Further, the GI50 in assay [4], in [5], in [6], in [7], in assay [8] and in [9] was > 100 µM (inactive) each time. Besides, the GI50 was > 100 µM (inactive) in assay [10]; greater than 100 µM in assay [11]; > 100 µM (inactive) in assay [12]; > 100 µM (inactive) in assay [14]; > 100 µM (inactive) in assay [15]; > 100 µM (inactive) in assay [16]. Also, in assay [17], the GI50 was > 100 µM (inactive).
Consider `COC(=O)c1s/c(=N\C(=S)N(C)C)n(-c2ccccc2)c1C(=O)OC`, for which the GI50 in [1] was > 100 µM (inactive); in assay [18] it was > 100 µM (inactive); in [19], > 100 µM (inactive); in assay [2] it was 57 µM (inactive); in assay [20], > 100 µM (inactive); in assay [3], 66.8 µM (inactive). Further, the GI50 is > 100 µM (inactive) in [4]; > 100 µM (inactive) in [6]; > 100 µM (inactive) in assay [7]; > 100 µM (inactive) in [8]; > 100 µM (inactive) in [9]; 52.2 µM (inactive) in assay [10]. In addition, the GI50 in assay [11] was greater than 100 µM; in [12] it was > 100 µM (inactive); in assay [13], > 100 µM (inactive); in [14] it was > 100 µM (inactive); in [15], > 100 µM (inactive); in [16], > 100 µM (inactive). The GI50 in [17] was 73.5 µM (inactive).
With `COc1ccc(/C(Cl)=C(\C=O)c2ccc(OC)c(OC)c2)cc1`, the GI50 in assay [1] was > 100 µM (inactive); in assay [2], 29.3 µM (inactive); in [3], 28.6 µM (inactive); in [4], 39.2 µM (inactive); in assay [5] it was 21.6 µM (inactive); in assay [6], 35.2 µM (inactive). In addition, the GI50 in [7] was 18.5 µM (inactive); in assay [8] it was 68.2 µM (inactive); in assay [9] it was 34.1 µM (inactive); in assay [10], 21.7 µM (inactive); in assay [11], 52.1 µM; in assay [12] it was 29.8 µM (inactive). In addition, the GI50 is 16.6 µM (inactive) in assay [13]; > 100 µM (inactive) in assay [14]; > 100 µM (inactive) in assay [15]; 62.4 µM (inactive) in assay [16]; 16.5 µM (inactive) in assay [17].
